Reference: article PMC11249637, “Interaction of the Atypical Tetracyclines Chelocardin and Amidochelocardin with Renal Drug Transporters” (ACS Pharmacology & Translational Science, 2024)

Assays:
mMate1 = molecular target: T1, mMate1 (Mus musculus, UniProt Q8K0H1); test: Two-point inhibition of mMate1-mediated metformin uptake in transfected HEK293 cells; format: in vitro ADME; conditions: 1 and 10 μM; metformin 20 μM, 1 min
T1 construct: expressed in transfected cells; host or cells: HEK293
T1 sequence (Q8K0H1 1-567): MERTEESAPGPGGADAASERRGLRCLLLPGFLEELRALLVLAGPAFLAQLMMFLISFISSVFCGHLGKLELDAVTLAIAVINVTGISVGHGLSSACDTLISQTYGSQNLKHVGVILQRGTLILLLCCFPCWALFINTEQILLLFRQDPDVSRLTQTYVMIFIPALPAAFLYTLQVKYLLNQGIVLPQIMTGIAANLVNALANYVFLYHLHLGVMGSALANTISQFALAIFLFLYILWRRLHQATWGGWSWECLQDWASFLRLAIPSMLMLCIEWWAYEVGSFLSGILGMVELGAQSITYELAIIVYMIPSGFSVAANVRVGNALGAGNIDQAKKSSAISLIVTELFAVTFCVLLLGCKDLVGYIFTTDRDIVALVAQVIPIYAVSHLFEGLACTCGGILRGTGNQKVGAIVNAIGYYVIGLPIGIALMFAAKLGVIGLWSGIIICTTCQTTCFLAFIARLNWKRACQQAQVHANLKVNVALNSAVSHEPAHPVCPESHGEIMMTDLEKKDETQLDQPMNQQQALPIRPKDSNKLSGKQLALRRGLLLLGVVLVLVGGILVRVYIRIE
Procedure: (§1) Well-characterized mOct1-, mOct2-, mOat1-, mOat2-, mOat3-, mMate1-, hOAT1-, hOAT3-, hOAT4-, hMRP2-, mMdr1a- and mMdr1b-transfected HEK293 cells and the respective vector-transfected control HEK293 cells were used.[42],[51],[52] All HEK293 cells (transporter-transfected and vector-transfected) were cultured in DMEM (Sigma, high glucose, 10% FBS, 1% penicillin (10,000 Units/mL)/streptomycin (10 mg/mL)) at 37°C under 5% CO2 in humidified atmosphere. The cells were routinely checked for the absence of mycoplasma infection. For the preparation of HEK293 cell monolayers, 24-well plates were pretreated with a poly-D-lysine hydrobromide solution (0.1 mg/mL). […]
For the uptake assay, the growth medium was aspirated, and each well was rinsed three times with 0.5 mL of incubation buffer (HBSS supplemented with 20 mM HEPES, pH 7.4) and incubated for 20 min at 37 °C. […] Cells were solubilized with 0.6 mL of 1N NaOH overnight and transferred into scintillation vials. ^3H and ^14C contents were measured after the addition of 2.5 mL of scintillator in a liquid scintillation counter.
The cellular protein amount was determined in parallel for each cell line (vector- and transporter-transfected) from six wells in a different 24-well reference plate using the Bradford method. […]
The inhibitory effect (I(%)) was calculated according to the formula: [drawing 5] […]

mMdr1b = molecular target: T2, mMdr1b (Mus musculus, UniProt P06795); test: Two-point inhibition of mMdr1b-mediated efflux of rhodamin123 in transfected HEK293 cells; format: in vitro ADME; conditions: rhodamin123 10 μM, efflux 30 min
T2 construct: expressed in transfected cells; host or cells: HEK293
T2 sequence (P06795 whole entry): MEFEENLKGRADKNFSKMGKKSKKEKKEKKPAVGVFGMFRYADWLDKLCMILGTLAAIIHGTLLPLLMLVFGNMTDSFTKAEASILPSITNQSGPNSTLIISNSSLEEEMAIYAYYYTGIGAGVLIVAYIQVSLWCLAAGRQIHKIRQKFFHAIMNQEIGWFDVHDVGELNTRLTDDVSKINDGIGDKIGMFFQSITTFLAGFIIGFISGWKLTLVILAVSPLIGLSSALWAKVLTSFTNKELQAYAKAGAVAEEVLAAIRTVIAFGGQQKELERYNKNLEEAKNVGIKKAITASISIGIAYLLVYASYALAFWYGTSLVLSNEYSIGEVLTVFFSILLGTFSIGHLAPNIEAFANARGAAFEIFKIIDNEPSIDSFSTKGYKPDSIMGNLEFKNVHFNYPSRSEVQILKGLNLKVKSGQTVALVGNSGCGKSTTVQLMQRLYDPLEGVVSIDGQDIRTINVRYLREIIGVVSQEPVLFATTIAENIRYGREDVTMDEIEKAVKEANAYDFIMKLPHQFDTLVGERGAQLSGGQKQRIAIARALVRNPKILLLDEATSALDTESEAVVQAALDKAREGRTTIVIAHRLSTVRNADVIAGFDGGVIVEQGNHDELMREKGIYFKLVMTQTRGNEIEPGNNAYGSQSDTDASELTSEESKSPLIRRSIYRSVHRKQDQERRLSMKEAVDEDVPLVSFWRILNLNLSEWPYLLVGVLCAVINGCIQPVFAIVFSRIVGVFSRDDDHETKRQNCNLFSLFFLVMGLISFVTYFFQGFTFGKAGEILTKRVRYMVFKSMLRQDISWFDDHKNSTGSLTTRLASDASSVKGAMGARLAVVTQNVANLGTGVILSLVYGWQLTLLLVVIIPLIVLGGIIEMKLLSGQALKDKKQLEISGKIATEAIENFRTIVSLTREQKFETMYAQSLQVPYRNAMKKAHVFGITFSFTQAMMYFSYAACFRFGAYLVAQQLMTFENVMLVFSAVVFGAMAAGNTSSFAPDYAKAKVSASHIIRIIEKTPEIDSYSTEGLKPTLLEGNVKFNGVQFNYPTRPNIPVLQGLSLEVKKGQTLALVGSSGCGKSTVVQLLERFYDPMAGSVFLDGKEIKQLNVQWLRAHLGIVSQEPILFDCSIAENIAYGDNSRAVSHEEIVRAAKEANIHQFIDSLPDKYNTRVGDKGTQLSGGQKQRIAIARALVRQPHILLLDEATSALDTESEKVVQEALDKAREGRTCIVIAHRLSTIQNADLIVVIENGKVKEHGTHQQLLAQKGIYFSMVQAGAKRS
Procedure: as §1, with “mg/mL). Each well was coated with 0.5 mL of poly-D-lysine solution and incubated for at least 15 min.” for “mg/mL).”
For efflux assays, growth medium was aspirated, and each well was rinsed twice with 0.5 mL of incubation HBSS buffer (supplemented with 20 mM HEPES, pH 7.4) and then preincubated in 200 μL of incubation buffer containing 10 μM rhodamin123 and 10 μM cyclosporine A for 60 min at 37 °C for loading the cells with rhodamin123. […] Samples were diluted with incubation buffer, and fluorescence was measured in a 96-well plate (Sarstedt, flat bottom) at an extinction of 490 nm and emission of 535 nm. […]
The inhibitory effect I (%) and the efflux ratio was calculated in the same way described for the uptake assays.

Cc1ccc2c(C)c3c(c(O)c2c1O)C(=O)[C@@]1(O)C(=O)C(C(N)=O)=C(O)[C@@H](N)[C@H]1C3 [CDCHD, amidochelocardin]
inhibitory effect on mMate1 (in words) (mMate1): did not have major effects
inhibition at 10 µM (mMdr1b; HEK293, at 10 μM, read-out: inhibitory effect on mMdr1b): ~30%

CC(=O)C1=C(O)[C@@H](N)[C@H]2Cc3c(c(O)c4c(O)c(C)ccc4c3C)C(=O)[C@@]2(O)C1=O [CHD, chelocardin]
inhibitory effect on mMate1 (in words) (mMate1): weak inhibitory effect
inhibitory effect on mMdr1b (in words) (mMdr1b; 1 and 10 μM): no effect
